Counter-ions that a name gives are not always drawn.
Experiments:
[1] = cited from earlier work
HL60 cells = settings: read-out: IC50 on HL60 cells (growth inhibition); cited from earlier work
c-Myc = c-Myc (Homo sapiens, UniProt P01106); settings: relative to parent compound 10058-F4; cited from earlier work
c-Myc/Max [2] = biological target: T1, c-Myc/Max (Mus musculus, UniProt P01108); test: Western blot of 10058-F4-treated mES cells; assay type: cell-based, murine
T1 construct: endogenous in cells; host or cells: V6.5 (C57BL/6-129) murine ES cells
Experimental: FIGS. 6A to 6E. c-Myc inhibition effects transcription at the pause release step. (A) RNA was extracted from mES cells treated with 10058-F4 or vehicle alone (DMSO) for 6 hours and used to generate cDNA using reverse transcription. Expression change was calculated for 10058-F4 treated cells compared vehicle alone control for two non-c-Myc target genes (Brg1, Rnf2-green) and five c-Myc target genes (Bax, Nol5, Zfp451, Brca2 and Atic—blue) from two independent experiments. Error bars represent s.d. from triplicate qPCR reactions. (B) mES cells were treated with 10058-F4 for either 1.5, 6 or 12 hours. Extracts were analyzed using Western blot using antibodies against Pol II Ser2P CTD, Pol II Ser5P CTD and Cdk9 to determine the levels of the modified forms of Pol II. TBP was used as a loading control. (C) Pol II ChIP-seq binding profiles in mES cells treated with 10058-F4 (c-Myc/Max inhibitor; blue), vehicle alone (black), or flavopiridol (P-TEFb inhibitor; red). Pol II occupancy is shown for three c-Myc target genes (Ncl, Npm1 and Nol5) and two non-cMyc target gene (Txnip and Chpf2). Cells were treated with 10058-F4 or DMSO for 6 hours. See also FIG. 14. (D) Average Pol II binding plots for the high confidence cMyc targets and non-c-Myc target genes in no drug (black), and 10058-F4 treatment (blue). […] The right panel is a close up of the transcribed region to show the difference in amounts of elongating Pol II density under the different conditions. […]
FIGS. 14A to 14F. […] Max ChIP DNA was analyzed using qPCR at the selected binding sites and enrichment was calculated for replicate PCR reactions over input DNA at each region. […] Protein extracts were analyzed using Western blots and probed with antibodies against CycT1 and Cdk9. […] ES cells were infected for 24 hours, then selected for 72 hours prior to harvesting. c-Myc levels were determined using RT-PCR analysis and normalized against a Gapdh control. […] ES cells were infected for 24 hours, then selected for 72 hours prior to harvesting. c-Myc levels were determined using Western blot analysis using an antibody against c-Myc. […]

c-Myc/Max [3] = biological target: T1, c-Myc/Max; test: Pol II ChIP-seq / traveling ratio in 10058-F4-treated mES cells; assay type: cell-based, murine; settings: 50 μM for 6 hours
Experimental: FIGS. 6A to 6E. c-Myc inhibition effects transcription at the pause release step. (A) RNA was extracted from mES cells treated with 10058-F4 or vehicle alone (DMSO) for 6 hours and used to generate cDNA using reverse transcription. Expression change was calculated for 10058-F4 treated cells compared vehicle alone control for two non-c-Myc target genes (Brg1, Rnf2-green) and five c-Myc target genes (Bax, Nol5, Zfp451, Brca2 and Atic—blue) from two independent experiments. Error bars represent s.d. from triplicate qPCR reactions. (B) mES cells were treated with 10058-F4 for either 1.5, 6 or 12 hours. Extracts were analyzed using Western blot using antibodies against Pol II Ser2P CTD, Pol II Ser5P CTD and Cdk9 to determine the levels of the modified forms of Pol II. TBP was used as a loading control. (C) Pol II ChIP-seq binding profiles in mES cells treated with 10058-F4 (c-Myc/Max inhibitor; blue), vehicle alone (black), or flavopiridol (P-TEFb inhibitor; red). Pol II occupancy is shown for three c-Myc target genes (Ncl, Npm1 and Nol5) and two non-cMyc target gene (Txnip and Chpf2). Cells were treated with 10058-F4 or DMSO for 6 hours. See also FIG. 14. (D) Average Pol II binding plots for the high confidence cMyc targets and non-c-Myc target genes in no drug (black), and 10058-F4 treatment (blue). […] The right panel is a close up of the transcribed region to show the difference in amounts of elongating Pol II density under the different conditions. Also included in the right panel for comparison is elongating Pol II density following flavopiridol treatment (red). (E) Pol II traveling ratio (TR) as described in FIG. 1C for the high confidence c-Myc target genes and non-c-Myc target genes following 10058-F4 treatment (blue) or no drug (black). The left panel is the TR for the c-Myc targets and right panel is the TR for non-c-Myc targets. Higher TR values indicate a higher degree of pausing in this gene set.
If c-Myc regulates pause release, then inhibition by 10058-F4 should have an effect on Pol II levels in promoter and gene bodies similar to that of flavopiridol, but only at c-Myc occupied genes. […]
We carried out a more global analysis of the effect of 10058-F4 on Pol II occupancy of genes bound by c-Myc and compared these patterns to genes that are not bound by this factor but show evidence of elongation (FIG. 6D). […] A similar shift in TR at the c-Myc target genes was also detected following c-Myc shRNA knockdown, indicating genes become more paused (FIG. 14F). […]
RNAPolII—10058F4Treated_Tracks.WIG.gz—contains two ChIP-seq datasets mapped to mouse genome mm8 using a +200 bp extension model that can be uploaded to the UCSC genome browser to view binding events. The ChIP experiments were done using the N20 Pol II antibody (sc-899) to determined total Pol II occupancy. […]

c-Myc/Max [4] = biological target: T1, c-Myc/Max; test: expression analysis (quantitative PCR) in 10058-F4-treated mES cells; assay type: cell-based, murine; settings: 50 μM for 6 hours
Experimental: FIGS. 6A to 6E. c-Myc inhibition effects transcription at the pause release step. (A) RNA was extracted from mES cells treated with 10058-F4 or vehicle alone (DMSO) for 6 hours and used to generate cDNA using reverse transcription. Expression change was calculated for 10058-F4 treated cells compared vehicle alone control for two non-c-Myc target genes (Brg1, Rnf2-green) and five c-Myc target genes (Bax, Nol5, Zfp451, Brca2 and Atic—blue) from two independent experiments. Error bars represent s.d. from triplicate qPCR reactions. (B) mES cells were treated with 10058-F4 for either 1.5, 6 or 12 hours. Extracts were analyzed using Western blot using antibodies against Pol II Ser2P CTD, Pol II Ser5P CTD and Cdk9 to determine the levels of the modified forms of Pol II. TBP was used as a loading control. […]
To more directly test whether c-Myc regulates pause release and the associated Pol II CTD phosphorylation at Ser2, we used a low molecular weight inhibitor of c-Myc/Max, 10058-F4, which inhibits c-Myc/Max heterodimerization both in vitro and in vivo (Hammoudeh et al., 2009; Wang et al., 2007; Yin et al., 2003). Max co-occupies c-Myc binding sites as determined by ChIP, confirming that c-Myc and Max function together at target genes in ES cells (FIG. 14A). […]

P-TEFb [5] = biological target: T2, P-TEFb (Mus musculus, UniProt Q99J95); test: Pol II ChIP-seq / traveling ratio in flavopiridol-treated mES cells; assay type: cell-based, murine
T2 construct: endogenous in cells; host or cells: V6.5 (C57BL/6-129) murine ES cells
Experimental: (A) mES cells were treated with 1 μM flavopiridol for the indicated time. […] (B) RNA Pol II (all) ChIP-seq analysis in mES cells treated with control (DMSO for 60 minutes, black) or flavopiridol (1 μM for 60 minutes, red). […] Higher TR values indicate a higher degree of pausing.
To assess the role of P-TEFb-dependent pause release in global transcriptional control, we repeated the ChIP-Seq experiment for total Pol II in mES cells treated with flavopiridol, an inhibitor of Cdk9 kinase activity (Chao et al., 2000; Chao and Price, 2001; Ni et al., 2004). […] If Pol II pause release is required at transcribed genes, we would expect that in the presence of flavopiridol, Pol II molecules would remain associated with promoter proximal pause sites but be depleted from DNA further downstream. […] We analyzed traveling ratios to further evaluate changes in Pol II occupancy genome-wide.
V6.5 (C57BL/6-129) murine ES cells were grown under typical mES conditions on irradiated mouse embryonic fibroblasts (MEFs). For location analysis, cells were grown for two passages off of MEFs, on gelatinized tissue-culture plates. […]
To quantify this effect, we have developed a measure called Traveling Ratio (TR) that compares the ratio between Pol II density in the promoter and in the gene region. […]

P-TEFb [6] = biological target: T2, P-TEFb; test: Western blot of P-TEFb target phosphorylation in flavopiridol-treated mES cells; assay type: cell-based, murine; settings: 1 μM flavopiridol, within 60 min
Experimental: (A) mES cells were treated with 1 μM flavopiridol for the indicated time.
(A) mES cells were treated with the indicated flavopiridol concentration or DMSO alone (−), for 60 minutes.
To assess the role of P-TEFb-dependent pause release in global transcriptional control, we repeated the ChIP-Seq experiment for total Pol II in mES cells treated with flavopiridol, an inhibitor of Cdk9 kinase activity (Chao et al., 2000; Chao and Price, 2001; Ni et al., 2004).
V6.5 (C57BL/6-129) murine ES cells were grown under typical mES conditions on irradiated mouse embryonic fibroblasts (MEFs). […] For location analysis on mES cells following treatment with small molecule inhibitors, cells were grown two passages off feeders and prior to formaldehyde crosslinking, the cells were treated by addition of the indicated final concentration of flavopiridol (1 μM for 1 hour for ChIP-chip and ChIP-seq experiments, or the indicated concentration and time for Western blot analysis), or c-Myc/Max inhibitor 10058-F4 (50 μM for 6 hours), both dissolved in DMSO, to the growth medium. As a control, vehicle alone (DMSO) was added to the growth medium at the same final volume as with drug. Small molecule inhibitors used were: Flavopiridol (Sigma cat #F3055), and c-Myc inhibitor 10058-F4 (Sigma cat #F3680).
Western blots were done following standard protocols. Antibodies used for Western blots were as follows: Spt5: gift of Yuki Yamaguchi and Hiroshi Handa (Wada et al., 1998); NelfA: gift of Yuki Yamaguchi and Hiroshi Handa; Cdk9: Santa Cruz sc-484 and sc-8338, Ser2P Pol II: Abcam (H5 clone) ab24758; Ser5P Pol II: Abcam ab5131; Brg1: Santa Cruz sc-10768; Max: Santa Cruz sc-197; c-Myc: Santa Cruz-764; Cyclin T1: gift of David Price; Oct4: Santa Cruz sc-5279; and TBP: Abcam ab818.

P-TEFb [7] = biological target: T2, P-TEFb; test: Spt5 and NelfA ChIP-chip in flavopiridol-treated mES cells; assay type: cell-based, murine; settings: flavopiridol for 60 minutes
Experimental: (A) Pairwise correlation analysis of Spt5, NelfA and Pol II (all) ChIP-seq occupancy in mES cells. […] (B) Western blot analysis of mES cells treated with 1 mM flavopiridol or control for 60 minutes prior. […] (C) Average gene binding for NelfA and Spt5 following 1 mM flavopiridol (red) or control (black) for 60 minutes in mES cells. The average ChIP-chip enrichment was determined in each bin (250 bp) in each condition and plotted from −4 kb to +2 kb.
We used ChIP-chip to determine if Spt5 and NelfA co-occupy promoter proximal sites with Pol II when P-TEFb activity is inhibited by flavopiridol.
Purified immunoprecipitated DNA was amplified using two rounds of ligation mediated PCR (LM PCR), as described in (Lee et al., 2006b) and the Agilent Mammalian ChIP-on-chip protocol (version 9.1, November 2006). LM-PCR immunoprecipitated DNA was labeled with Cy5, LM-PCR input DNA was labeled with Cy3 using Invitrogen Bioprime random primer labeling kit. For microarray hybridization, the Agilent Mammalian ChIP-on-chip protocol (version 9.1, November 2006) was followed. In brief, mouse Cotl DNA, Agilent blocking buffer (1× final conc.), Agilent hybridization buffer (1× final conc.), was added to Cy5- and Cy3-labeled DNA. The mixture was incubated at 95° C. for 3 minutes, followed by 37° C. for 30 minutes. Sample was centrifuged for 1 min and sample was hybridized to Agilent DNA microarray. […]

[8] = cited from earlier work; remark: listed apart in the source
[9] = tested on: c-Myc-dependent oncogenic transformation of chicken embryo fibroblasts; settings: at 20 μM; cited from earlier work
[10] = ES cells treated with 10058-F4 for 1.5, 6 or 12 hours

T2 sequence (Q99J95 whole entry): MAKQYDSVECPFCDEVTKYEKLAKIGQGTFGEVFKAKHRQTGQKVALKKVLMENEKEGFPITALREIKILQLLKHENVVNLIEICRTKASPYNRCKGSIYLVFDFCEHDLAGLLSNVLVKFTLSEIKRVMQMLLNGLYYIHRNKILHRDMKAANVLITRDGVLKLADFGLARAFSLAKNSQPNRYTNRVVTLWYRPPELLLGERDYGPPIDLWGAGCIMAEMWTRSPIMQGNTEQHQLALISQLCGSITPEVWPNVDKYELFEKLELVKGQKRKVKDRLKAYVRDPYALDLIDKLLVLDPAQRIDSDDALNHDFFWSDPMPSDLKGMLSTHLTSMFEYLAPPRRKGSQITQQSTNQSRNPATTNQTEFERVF
T2 sequence (Q9QWV9 whole entry partner): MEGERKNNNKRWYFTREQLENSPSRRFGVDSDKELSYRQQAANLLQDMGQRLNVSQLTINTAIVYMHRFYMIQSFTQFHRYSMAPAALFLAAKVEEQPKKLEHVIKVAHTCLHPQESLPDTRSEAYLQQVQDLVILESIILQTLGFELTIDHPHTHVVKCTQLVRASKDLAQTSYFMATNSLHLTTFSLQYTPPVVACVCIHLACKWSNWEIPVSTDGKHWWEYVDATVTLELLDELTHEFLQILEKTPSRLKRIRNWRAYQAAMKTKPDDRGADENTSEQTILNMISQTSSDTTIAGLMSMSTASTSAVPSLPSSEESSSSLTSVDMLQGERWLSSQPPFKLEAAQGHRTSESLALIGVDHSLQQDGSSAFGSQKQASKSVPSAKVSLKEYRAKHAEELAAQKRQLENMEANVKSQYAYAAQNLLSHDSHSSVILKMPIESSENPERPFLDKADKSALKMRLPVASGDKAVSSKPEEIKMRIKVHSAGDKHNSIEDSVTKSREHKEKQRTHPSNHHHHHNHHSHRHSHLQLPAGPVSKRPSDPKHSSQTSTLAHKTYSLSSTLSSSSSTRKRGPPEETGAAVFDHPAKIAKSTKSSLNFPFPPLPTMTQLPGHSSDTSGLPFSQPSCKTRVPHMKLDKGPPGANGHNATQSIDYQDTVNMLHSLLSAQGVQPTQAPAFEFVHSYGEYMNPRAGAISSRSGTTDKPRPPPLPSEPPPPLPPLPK
T1 sequence (P01108 whole entry): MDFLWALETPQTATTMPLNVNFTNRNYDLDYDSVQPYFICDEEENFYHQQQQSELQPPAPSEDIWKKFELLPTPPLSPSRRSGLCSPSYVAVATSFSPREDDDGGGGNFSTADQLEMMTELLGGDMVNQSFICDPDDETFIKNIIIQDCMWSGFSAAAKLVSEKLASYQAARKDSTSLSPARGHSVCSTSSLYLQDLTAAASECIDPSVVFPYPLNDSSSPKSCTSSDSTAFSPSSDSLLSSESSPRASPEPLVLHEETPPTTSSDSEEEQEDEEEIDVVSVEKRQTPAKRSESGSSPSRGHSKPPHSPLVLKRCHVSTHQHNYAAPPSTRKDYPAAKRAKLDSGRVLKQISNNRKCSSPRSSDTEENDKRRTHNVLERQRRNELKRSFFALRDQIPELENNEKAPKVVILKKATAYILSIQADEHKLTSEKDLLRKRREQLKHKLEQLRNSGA
Chain of c-Myc (P01106 whole entry): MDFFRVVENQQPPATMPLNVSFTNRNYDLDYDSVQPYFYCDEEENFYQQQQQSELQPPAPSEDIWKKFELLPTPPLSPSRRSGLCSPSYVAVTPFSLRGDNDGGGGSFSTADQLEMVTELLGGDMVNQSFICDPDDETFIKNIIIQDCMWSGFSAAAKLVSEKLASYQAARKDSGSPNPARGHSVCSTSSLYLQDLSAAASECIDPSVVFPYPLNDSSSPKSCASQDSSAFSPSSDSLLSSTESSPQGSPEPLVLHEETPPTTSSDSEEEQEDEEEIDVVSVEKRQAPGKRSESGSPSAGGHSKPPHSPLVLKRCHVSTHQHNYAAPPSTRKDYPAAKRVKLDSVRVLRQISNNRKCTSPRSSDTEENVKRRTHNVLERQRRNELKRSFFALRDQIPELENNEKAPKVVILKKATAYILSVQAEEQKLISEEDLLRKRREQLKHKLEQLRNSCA

Question: With `CC[C@H](CO)Nc1nc(NCc2ccccc2)c2ncn(C(C)C)c2n1` [roscovitine, 2-(R)-(1-Ethyl-2-hydroxyethylamino)-6-benzylamino-9-isopropyl purine] as the compound, how does the dose-limiting toxicities ([1]; at 800 mg b.i.d.) read?
Answer: grade 3 fatigue, grade 3 skin rash, grade 3 hyponatraemia and grade 4 hypokalaemia

Question: What about the “dose at which dose-limiting toxicities were seen” value ([1]; patients with solid tumors, 7-day b.i.d. p.o. schedule) of the same compound?
Answer: 800 mg b.i.d.

Question: Which IC50 (HL60 cells) does the source give for `CC(C)c1ccc(/C=C2\SC(=S)N(CN3CCCCC3)C2=O)cc1` [28RH-NCN-1] here?
Answer: 29 µM

Question: What about the “inhibition of DNA binding of c-Myc” value (c-Myc) of the same compound?
Answer: comparable to that of the parent compound

Question: With `CCc1ccc(/C=C2\SC(=S)NC2=O)cc1` [10058-F4] as the compound, how does the “levels of Pol II Ser2P” value (c-Myc/Max [2]; [10]) read?
Answer: significant reduction

Question: And the “levels of Pol II Ser5P” value (c-Myc/Max [2]; [10])?
Answer: remained unaffected

Question: And the “protein levels of P-TEFb components Cdk9 or CycT1” value (c-Myc/Max [2]; mES cells, 10058-F4 for 6 hours)?
Answer: did not alter

Question: And the IC50 (HL60 cells)?
Answer: 49 µM

Question: And the “TR at c-Myc target genes” value (c-Myc/Max [3])?
Answer: substantial increase

Question: And the “TR at non-c-Myc targets” value (c-Myc/Max [3])?
Answer: no such shift

Question: And the “Pol II density in transcribed regions” value (c-Myc/Max [3]; c-Myc targets, gene body p=7.341e-06)?
Answer: clear reduction

Question: What about the “Pol II density at promoters” value (c-Myc/Max [3]; c-Myc targets, p=0.4536) of the same compound?
Answer: little effect

Question: And the “decrease in the expression of c-Myc target genes” value (c-Myc/Max [4])?
Answer: 20-40%

Question: And the “expression of two non-c-Myc target genes” value (c-Myc/Max [4])?
Answer: did not affect

Question: For `CN1CC[C@H](c2c(O)cc(O)c3c(=O)cc(-c4ccccc4Cl)oc23)[C@H](O)C1` [flavopiridol, (−)-2-(2-Chlorophenyl)-5,7-dihydroxy-8-[(3S,4R)-3-hydroxy-1-methyl-4-piperidinyl]-4H-1-benzopyran-4-one hydrochloride], which “genes with a change in Pol II TR of at least 1.5 upon drug treatment” value (P-TEFb [5]; 1 μM for 60 minutes) is on record?
Answer: 75%

Question: What about the “pause release at genes that are not targets of c-Myc” value (P-TEFb [5]; flavopiridol treatment, Pol II ChIP-seq) of the same compound?
Answer: block in pause release

Question: And the “Ser5 phosphorylation of Pol II” value (P-TEFb [6])?
Answer: remained unaffected

Question: And the “phosphorylation of Pol II Ser2” value (P-TEFb [6])?
Answer: reduced phosphorylation

Question: What about the “phosphorylation of Spt5” value (P-TEFb [6]) of the same compound?
Answer: reduced phosphorylation

Question: And the “Spt5 occupancy downstream of promoter proximal sites” value (P-TEFb [7])?
Answer: depleted

Question: And the main side effects ([8]; doses achieving plasma levels of approximately 400 nM, 72 hour treatment)?
Answer: fatigue, venous thromboses, and diarrhea

Question: What about the plasma flavopiridol levels ([8]; during a 72 hour treatment period) of the same compound?
Answer: approximately 400 nM

Question: With `COc1ccc(CN(C(=O)c2ccccn2)C(C(=O)NC2CCCCC2)c2ccc3cc(OCC(=O)OC(C)(C)C)ccc3c2)cc1` (centres unmarked) [NY2267] as the compound, how does the “inhibition of c-Myc-dependent oncogenic transformation” value [9] read?
Answer: strongly inhibited
